{"source": "ChEMBL document CHEMBL4270498", "about": "“Targeting Eph/ephrin system in cancer therapy” (Eur J Med Chem, 2017)", "key": {"[1]": {"assay": "Half life in mouse at 30 mg/kg, iv", "type": "ADME, organism-based", "conditions": "in vivo"}, "[2]": {"biological_target": "Ephrin type-A receptor 2 (Homo sapiens, UniProt P29317)", "sequence (P29317 whole entry)": "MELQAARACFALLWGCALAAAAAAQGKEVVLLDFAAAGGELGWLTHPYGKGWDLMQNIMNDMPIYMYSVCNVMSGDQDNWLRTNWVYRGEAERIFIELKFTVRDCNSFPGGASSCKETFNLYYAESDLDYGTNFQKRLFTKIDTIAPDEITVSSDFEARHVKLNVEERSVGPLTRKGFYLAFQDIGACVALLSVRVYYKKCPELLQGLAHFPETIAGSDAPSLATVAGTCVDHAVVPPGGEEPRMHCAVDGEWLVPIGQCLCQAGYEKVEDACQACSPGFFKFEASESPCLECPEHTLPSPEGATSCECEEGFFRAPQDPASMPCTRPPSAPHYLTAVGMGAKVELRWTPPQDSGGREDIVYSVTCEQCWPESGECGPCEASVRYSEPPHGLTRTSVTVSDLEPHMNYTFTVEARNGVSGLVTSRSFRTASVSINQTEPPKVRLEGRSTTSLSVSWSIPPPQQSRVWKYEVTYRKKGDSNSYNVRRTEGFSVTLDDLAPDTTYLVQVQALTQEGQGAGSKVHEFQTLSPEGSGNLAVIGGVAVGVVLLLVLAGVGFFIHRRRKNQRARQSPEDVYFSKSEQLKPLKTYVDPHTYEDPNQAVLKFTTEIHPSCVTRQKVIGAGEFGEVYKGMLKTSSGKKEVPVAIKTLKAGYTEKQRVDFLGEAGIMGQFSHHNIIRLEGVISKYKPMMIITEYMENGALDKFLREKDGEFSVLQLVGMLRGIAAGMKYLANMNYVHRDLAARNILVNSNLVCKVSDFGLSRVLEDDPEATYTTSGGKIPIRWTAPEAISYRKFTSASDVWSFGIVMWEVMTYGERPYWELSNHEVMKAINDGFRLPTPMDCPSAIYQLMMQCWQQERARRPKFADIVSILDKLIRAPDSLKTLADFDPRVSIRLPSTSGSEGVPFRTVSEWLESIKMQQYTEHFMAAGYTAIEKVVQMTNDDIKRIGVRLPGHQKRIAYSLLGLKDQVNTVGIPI", "assay": "Binding affinity to EphA2 (unknown origin)"}, "[3]": {"biological_target": "T1, Ephrin type-A receptor 2 (Mus musculus, UniProt Q03145)", "T1 sequence (Q03145 whole entry, the tested form may be a part)": "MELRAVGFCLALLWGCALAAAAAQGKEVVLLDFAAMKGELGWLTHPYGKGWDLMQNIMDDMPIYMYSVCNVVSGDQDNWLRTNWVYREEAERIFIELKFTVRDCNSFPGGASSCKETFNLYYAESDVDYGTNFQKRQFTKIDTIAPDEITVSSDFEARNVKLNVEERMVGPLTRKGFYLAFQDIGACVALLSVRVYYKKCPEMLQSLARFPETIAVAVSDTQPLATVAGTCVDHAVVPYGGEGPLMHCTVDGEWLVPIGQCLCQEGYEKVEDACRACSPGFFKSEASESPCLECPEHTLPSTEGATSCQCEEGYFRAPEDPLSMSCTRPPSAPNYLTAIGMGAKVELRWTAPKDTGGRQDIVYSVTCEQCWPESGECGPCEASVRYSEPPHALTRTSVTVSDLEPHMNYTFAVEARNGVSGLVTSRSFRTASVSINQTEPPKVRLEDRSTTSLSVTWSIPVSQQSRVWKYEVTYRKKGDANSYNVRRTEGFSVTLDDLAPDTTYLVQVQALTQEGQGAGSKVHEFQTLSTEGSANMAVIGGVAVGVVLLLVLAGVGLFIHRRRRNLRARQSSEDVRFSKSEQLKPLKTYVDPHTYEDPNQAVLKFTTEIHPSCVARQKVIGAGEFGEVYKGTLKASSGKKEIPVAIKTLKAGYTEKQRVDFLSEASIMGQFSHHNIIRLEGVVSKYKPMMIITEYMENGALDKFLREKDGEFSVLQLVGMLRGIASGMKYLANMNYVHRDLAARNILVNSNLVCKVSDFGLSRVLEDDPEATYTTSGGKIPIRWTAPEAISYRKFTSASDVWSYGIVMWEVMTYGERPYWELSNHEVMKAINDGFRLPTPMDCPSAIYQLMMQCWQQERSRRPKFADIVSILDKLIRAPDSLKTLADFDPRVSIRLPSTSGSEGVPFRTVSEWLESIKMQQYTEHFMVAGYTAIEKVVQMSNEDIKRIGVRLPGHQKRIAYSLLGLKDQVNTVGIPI", "assay": "Binding affinity to histidine-tagged mouse EphA2 Fc fusion protein by SPR assay"}, "[4]": {"biological_target": "T2, Ephrin type-B receptor 4 (Homo sapiens, UniProt P54760)", "T2 sequence (P54760 whole entry)": "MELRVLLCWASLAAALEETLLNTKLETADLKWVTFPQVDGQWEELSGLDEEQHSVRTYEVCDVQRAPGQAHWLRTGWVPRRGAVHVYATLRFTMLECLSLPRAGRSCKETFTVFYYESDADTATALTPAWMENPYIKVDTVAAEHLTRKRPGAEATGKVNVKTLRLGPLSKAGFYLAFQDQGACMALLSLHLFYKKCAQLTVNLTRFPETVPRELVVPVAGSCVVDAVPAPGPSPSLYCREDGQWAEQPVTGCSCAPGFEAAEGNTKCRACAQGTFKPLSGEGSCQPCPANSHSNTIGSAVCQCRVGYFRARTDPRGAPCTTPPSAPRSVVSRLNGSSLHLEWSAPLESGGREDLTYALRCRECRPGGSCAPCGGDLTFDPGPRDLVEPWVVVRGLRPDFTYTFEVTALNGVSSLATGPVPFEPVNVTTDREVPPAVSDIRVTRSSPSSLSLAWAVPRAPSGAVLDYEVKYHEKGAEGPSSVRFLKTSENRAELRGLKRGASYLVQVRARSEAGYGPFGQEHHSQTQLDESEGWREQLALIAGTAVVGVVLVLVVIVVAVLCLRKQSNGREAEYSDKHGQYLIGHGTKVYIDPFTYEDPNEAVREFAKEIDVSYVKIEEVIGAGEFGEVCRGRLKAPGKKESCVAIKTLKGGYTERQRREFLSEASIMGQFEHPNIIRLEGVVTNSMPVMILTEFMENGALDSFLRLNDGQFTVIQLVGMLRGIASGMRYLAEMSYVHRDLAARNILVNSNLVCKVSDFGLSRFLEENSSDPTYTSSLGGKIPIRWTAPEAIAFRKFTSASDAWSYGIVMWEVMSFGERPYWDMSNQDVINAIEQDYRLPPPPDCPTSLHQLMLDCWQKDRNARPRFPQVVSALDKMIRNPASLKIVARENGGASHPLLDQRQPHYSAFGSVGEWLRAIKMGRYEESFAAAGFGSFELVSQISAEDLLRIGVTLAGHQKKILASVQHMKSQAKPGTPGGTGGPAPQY", "assay": "Binding affinity to Fc-tagged EphB4 (unknown origin) assessed as reduction in ephrin-B2 binding by SPR assay"}, "[5]": {"biological_target": "T1, Ephrin type-A receptor 2", "assay": "Displacement of biotinylated ephrinA1-Fc from recombinant mouse EphA2 Fc chimera protein by ELISA"}}, "data": [{"compound": "CCCC[C@H](NC(=O)[C@@H]1CCCN1C(=O)[C@@H](NC(=O)[C@H](CO)NC(=O)[C@H](CC(=O)O)NC(=O)[C@@H]1CCCN1C(=O)[C@H](Cc1ccc(O)cc1)NC(=O)[C@H](C)NC(=O)[C@H](CO)NC(=O)COc1ccc(F)c(Cl)c1)C(C)C)C(=O)N[C@@H](CCO)C(=O)N[C@@H](CO)C(=O)N[C@@H](CCCCNC(=O)CCCc1cn(CCCCCOC(=O)COCC(=O)O[C@@H](C(=O)O[C@H]2C[C@@]3(O)[C@@H](OC(=O)c4ccccc4)[C@@H]4[C@]5(OC(C)=O)CO[C@@H]5C[C@H](O)[C@@]4(C)C(=O)[C@H](OC(C)=O)C(=C2C)C3(C)C)[C@@H](NC(=O)c2ccccc2)c2ccccc2)nn1)C(=O)O", "values": [{"measurement": "half-life", "setting": "[1]", "value": "> 2", "unit": "h"}]}, {"compound": "C[C@H](CCC(=O)N[C@H](CC(=O)O)Cc1c[nH]c2ccccc12)[C@H]1CC[C@H]2[C@@H]3CC[C@@H]4CCCC[C@]4(C)[C@H]3CC[C@]12C", "values": [{"measurement": "Ki", "setting": "[2]", "value": "> 15", "unit": "µM"}]}, {"compound": "CC(C)C[C@H](NC(=O)[C@H](Cc1c[nH]c2ccccc12)NC(=O)[C@@H](N)CO)C(=O)N[C@@H](C)C(=O)N[C@@H](Cc1ccc(O)cc1)C(=O)N1CCC[C@H]1C(=O)NCC(=O)N[C@@H](C)C(=O)N[C@H](C(=O)N[C@@H](CO)C(=O)N[C@@H](Cc1ccc(O)cc1)C(=O)N[C@@H](CCCN=C(N)N)C(=O)O)C(C)C", "values": [{"measurement": "Kd", "setting": "[3]", "value": 0.7, "unit": "µM"}]}, {"compound": "H-TNYLFSPNGPIARAW-OH", "values": [{"measurement": "Kd", "setting": "[4]", "value": 0.002, "unit": "µM"}]}, {"compound": "C[C@H](CCC(=O)O)[C@H]1CC[C@H]2[C@@H]3CC[C@@H]4C[C@H](O)CC[C@]4(C)[C@H]3CC[C@]12C", "note": "[LITHOCHOLIC ACID]", "values": [{"measurement": "IC50", "setting": "[5]", "value": 57, "unit": "µM"}]}]}
